Test results reported in patent US8952024B2, “Herbicidal pyrimidone derivatives” (E I du Pont de Nemours and Company, priority 2009, dated 2015).

Legend:
Assay in all cases: Test B pre-/postemergence plant response
Format in all cases: in vivo
[1] = system: Italian ryegrass (Lolium multiflorum); settings: for Ryegrass, Italian plant response rating (0 to 100 scale): 62 g ai/ha, postemergence, 0 is no effect, 100 is complete control, 13 to 15 days; for Plant response rating, Ryegrass, Italian: Postemergence, scale 0 to 100 (0 no effect, 100 complete control)
How it was run: (§1)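 Response scores were assigned visually after 13 to 15 days in a greenhouse, comparing treated pots with controls on a 0–100 scale where 100 denotes complete control. Preemergence treatments went onto freshly seeded loam/sand soil; postemergence treatments onto plants 2 to 18 cm tall.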

[2] = system: Surinam grass (Brachiaria decumbens); settings: for Plant response rating, Surinam Grass: Postemergence, scale 0 to 100 (0 no effect, 100 complete control)
How it was run: as §1

[3] = system: bermudagrass (Cynodon dactylon); settings: for Bermudagrass plant response rating (0 to 100 scale): 62 g ai/ha, 0 is no effect, 13 to 15 days
How it was run: as §1

[4] = system: blackgrass (Alopecurus myosuroides); settings: for Blackgrass plant response rating (0 to 100 scale): 62 g ai/ha, 0 is no effect, 13 to 15 days
How it was run: as §1

[5] = system: cocklebur (Xanthium strumarium); settings: for Cocklebur plant response rating (0 to 100 scale): 62 g ai/ha, 0 is no effect, 13 to 15 days
How it was run: as §1

[6] = system: corn (Zea mays); settings: for Corn plant response rating (0 to 100 scale): 62 g ai/ha, 0 is no effect, 13 to 15 days
How it was run: as §1

[7] = system: downy bromegrass (Bromus tectorum); settings: for Bromegrass, Downy plant response rating (0 to 100 scale): 62 g ai/ha, 0 is no effect, 13 to 15 days
How it was run: as §1

[8] = system: green foxtail (Setaria viridis); settings: for Foxtail, Green plant response rating (0 to 100 scale): 62 g ai/ha, 0 is no effect, 13 to 15 days
How it was run: as §1

[9] = system: kochia (Kochia scoparia); settings: for Kochia plant response rating (0 to 100 scale): 62 g ai/ha, 0 is no effect, 13 to 15 days
How it was run: as §1

[10] = system: lambsquarters (Chenopodium album); settings: for Lambsquarters plant response rating (0 to 100 scale): 62 g ai/ha, 0 is no effect, 13 to 15 days
How it was run: as §1

[11] = system: large crabgrass (Digitaria sanguinalis); settings: for Crabgrass, Large plant response rating (0 to 100 scale): 62 g ai/ha, 0 is no effect, 13 to 15 days
How it was run: as §1

[12] = system: pigweed (Amaranthus retroflexus); settings: for Pigweed plant response rating (0 to 100 scale): 62 g ai/ha, 0 is no effect, 13 to 15 days
How it was run: as §1

[13] = system: ragweed (common ragweed, Ambrosia elatior); settings: for Ragweed plant response rating (0 to 100 scale): 62 g ai/ha, postemergence, 0 is no effect, 100 is complete control, 13 to 15 days; for Plant response rating, Ragweed: Postemergence, scale 0 to 100 (0 no effect, 100 complete control)
How it was run: as §1

[14] = system: soybean (Glycine max); settings: for Soybean plant response rating (0 to 100 scale): 62 g ai/ha, postemergence, 0 is no effect, 100 is complete control, 13 to 15 days; for Plant response rating, Soybean: Postemergence, scale 0 to 100 (0 no effect, 100 complete control)
How it was run: as §1

[15] = system: velvetleaf (Abutilon theophrasti); settings: for Velvetleaf plant response rating (0 to 100 scale): 62 g ai/ha, postemergence, 0 is no effect, 100 is complete control, 13 to 15 days; for Plant response rating, Velvetleaf: Postemergence, scale 0 to 100 (0 no effect, 100 complete control)
How it was run: as §1

[16] = system: wild oat (Avena fatua); settings: for Oat, Wild plant response rating (0 to 100 scale): 62 g ai/ha, 0 is no effect, 13 to 15 days
How it was run: as §1

[17] = system: yellow nutsedge (Cyperus esculentus); settings: for Nutsedge, Yellow plant response rating (0 to 100 scale): 62 g ai/ha, 0 is no effect, 13 to 15 days
How it was run: as §1

[18] = 31 g ai/ha, postemergence, scale 0 to 100, 0 is no effect, 100 is complete control
[19] = postemergence, 100 is complete control
[20] = Postemergence, 125 g ai/ha, scale 0 to 100 (0 no effect, 100 complete control)
[21] = Postemergence, 250 g ai/ha, scale 0 to 100 (0 no effect, 100 complete control)

With `O=C1CCCC(O)=C1C(=O)c1cnc(-c2cccs2)n(CC2CCCO2)c1=O` (stereo not shown) [Compound 109] the “Ryegrass, Italian plant response rating (0 to 100 scale)” value [1] was 0, the “Plant response rating, Ryegrass, Italian” value ([1]; 125 g ai/ha) was 5 and the “Plant response rating, Ryegrass, Italian” value ([1]; 250 g ai/ha) was 40. The “Surinam Grass plant response rating (0 to 100 scale)” value ([2]; 62 g ai/ha, postemergence, 0 is no effect, 100 is complete control, 13 to 15 days) was 65, the “Plant response rating, Surinam Grass” value ([2]; 125 g ai/ha) was 65 and the “Plant response rating, Surinam Grass” value ([2]; 250 g ai/ha) was 80. The “Plant response rating, Bermudagrass” value [3, 18] was 70, the “Bermudagrass plant response rating (0 to 100 scale)” value [3, 19] was 85 and the “Plant response rating, Bermudagrass” value [3, 20] was 90. For the same molecule, the “Plant response rating, Bermudagrass” value [3, 21] was 95, the “Plant response rating, Blackgrass” value [4, 18] was 0 and the “Blackgrass plant response rating (0 to 100 scale)” value [4, 19] was 5. For the same molecule, the “Plant response rating, Blackgrass” value [4, 20] was 40, the “Plant response rating, Blackgrass” value [4, 21] was 50 and the “Plant response rating, Cocklebur” value [5, 18] was 75. The “Cocklebur plant response rating (0 to 100 scale)” value [5, 19] was 98, the “Plant response rating, Cocklebur” value [5, 20] was 100 and the “Plant response rating, Cocklebur” value [5, 21] was 100. For the same molecule, the “Plant response rating, Corn” value [6, 18] was 0, the “Corn plant response rating (0 to 100 scale)” value [6, 19] was 15 and the “Plant response rating, Corn” value [6, 20] was 60. The “Plant response rating, Corn” value [6, 21] was 60, the “Plant response rating, Bromegrass, Downy” value [7, 18] was 0 and the “Bromegrass, Downy plant response rating (0 to 100 scale)” value [7, 19] was 0. For the same molecule, the “Plant response rating, Bromegrass, Downy” value [7, 20] was 5, the “Plant response rating, Bromegrass, Downy” value [7, 21] was 5 and the “Plant response rating, Foxtail, Green” value [8, 18] was 20. The “Foxtail, Green plant response rating (0 to 100 scale)” value [8, 19] was 80, the “Plant response rating, Foxtail, Green” value [8, 20] was 85 and the “Plant response rating, Foxtail, Green” value [8, 21] was 98. For the same molecule, the “Plant response rating, Kochia” value [9, 18] was 70, the “Kochia plant response rating (0 to 100 scale)” value [9, 19] was 75 and the “Plant response rating, Kochia” value [9, 20] was 85. The “Plant response rating, Kochia” value [9, 21] was 98, the “Plant response rating, Lambsquarters” value [10, 18] was 98 and the “Lambsquarters plant response rating (0 to 100 scale)” value [10, 19] was 98. The “Plant response rating, Lambsquarters” value [10, 20] was 100, the “Plant response rating, Lambsquarters” value [10, 21] was 100 and the “Plant response rating, Crabgrass, Large” value [11, 18] was 65. The “Crabgrass, Large plant response rating (0 to 100 scale)” value [11, 19] was 75, the “Plant response rating, Crabgrass, Large” value [11, 20] was 75 and the “Plant response rating, Crabgrass, Large” value [11, 21] was 85. The “Plant response rating, Pigweed” value [12, 18] was 100, the “Pigweed plant response rating (0 to 100 scale)” value [12, 19] was 100 and the “Plant response rating, Pigweed” value [12, 20] was 100. For the same molecule, the “Plant response rating, Pigweed” value [12, 21] was 100, the “Ragweed plant response rating (0 to 100 scale)” value [13] was 95 and the “Plant response rating, Ragweed” value ([13]; 125 g ai/ha) was 95. For the same molecule, the “Plant response rating, Ragweed” value ([13]; 250 g ai/ha) was 98, the “Soybean plant response rating (0 to 100 scale)” value [14] was 95 and the “Plant response rating, Soybean” value ([14]; 125 g ai/ha) was 98. For the same molecule, the “Plant response rating, Soybean” value ([14]; 250 g ai/ha) was 100, the “Velvetleaf plant response rating (0 to 100 scale)” value [15] was 98 and the “Plant response rating, Velvetleaf” value ([15]; 125 g ai/ha) was 100. The “Plant response rating, Velvetleaf” value ([15]; 250 g ai/ha) was 100, the “Plant response rating, Oat, Wild” value [16, 18] was 0 and the “Oat, Wild plant response rating (0 to 100 scale)” value [16, 19] was 0. For the same molecule, the “Plant response rating, Oat, Wild” value [16, 20] was 30, the “Plant response rating, Oat, Wild” value [16, 21] was 40 and the “Nutsedge, Yellow plant response rating (0 to 100 scale)” value [17, 19] was 65. The “Plant response rating, Nutsedge, Yellow” value [17, 20] was 75 and the “Plant response rating, Nutsedge, Yellow” value [17, 21] was 80.

For `COCCn1c(-c2ccco2)ncc(C(=O)C2=C(O)CCCC2=O)c1=O` [Compound 111], the “Ryegrass, Italian plant response rating (0 to 100 scale)” value [1] was 0, the “Plant response rating, Ryegrass, Italian” value ([1]; 125 g ai/ha) was 0 and the “Plant response rating, Ryegrass, Italian” value ([1]; 250 g ai/ha) was 5. For the same molecule, the “Plant response rating, Surinam Grass” value ([2]; 125 g ai/ha) was 70, the “Plant response rating, Surinam Grass” value ([2]; 250 g ai/ha) was 80 and the “Plant response rating, Bermudagrass” value [3, 18] was 95. The “Bermudagrass plant response rating (0 to 100 scale)” value [3, 19] was 100, the “Plant response rating, Bermudagrass” value [3, 20] was 100 and the “Plant response rating, Bermudagrass” value [3, 21] was 100. For the same molecule, the “Plant response rating, Blackgrass” value [4, 18] was 5, the “Blackgrass plant response rating (0 to 100 scale)” value [4, 19] was 5 and the “Plant response rating, Blackgrass” value [4, 20] was 25. The “Plant response rating, Blackgrass” value [4, 21] was 40, the “Plant response rating, Cocklebur” value [5, 18] was 98 and the “Cocklebur plant response rating (0 to 100 scale)” value [5, 19] was 98. For the same molecule, the “Plant response rating, Cocklebur” value [5, 20] was 100, the “Plant response rating, Cocklebur” value [5, 21] was 100 and the “Plant response rating, Corn” value [6, 18] was 10. For the same molecule, the “Corn plant response rating (0 to 100 scale)” value [6, 19] was 45, the “Plant response rating, Corn” value [6, 20] was 55 and the “Plant response rating, Corn” value [6, 21] was 60. For the same molecule, the “Plant response rating, Bromegrass, Downy” value [7, 18] was 0, the “Bromegrass, Downy plant response rating (0 to 100 scale)” value [7, 19] was 0 and the “Plant response rating, Bromegrass, Downy” value [7, 20] was 5. The “Plant response rating, Bromegrass, Downy” value [7, 21] was 10, the “Plant response rating, Foxtail, Green” value [8, 18] was 40 and the “Foxtail, Green plant response rating (0 to 100 scale)” value [8, 19] was 60. For the same molecule, the “Plant response rating, Foxtail, Green” value [8, 20] was 65, the “Plant response rating, Foxtail, Green” value [8, 21] was 70 and the “Plant response rating, Kochia” value [9, 18] was 80. The “Kochia plant response rating (0 to 100 scale)” value [9, 19] was 100, the “Plant response rating, Kochia” value [9, 20] was 100 and the “Plant response rating, Kochia” value [9, 21] was 100. For the same molecule, the “Plant response rating, Lambsquarters” value [10, 18] was 98, the “Lambsquarters plant response rating (0 to 100 scale)” value [10, 19] was 98 and the “Plant response rating, Lambsquarters” value [10, 20] was 100. The “Plant response rating, Lambsquarters” value [10, 21] was 100, the “Plant response rating, Crabgrass, Large” value [11, 18] was 70 and the “Crabgrass, Large plant response rating (0 to 100 scale)” value [11, 19] was 75. The “Plant response rating, Crabgrass, Large” value [11, 20] was 80, the “Plant response rating, Crabgrass, Large” value [11, 21] was 85 and the “Plant response rating, Pigweed” value [12, 18] was 95. The “Pigweed plant response rating (0 to 100 scale)” value [12, 19] was 100, the “Plant response rating, Pigweed” value [12, 20] was 100 and the “Plant response rating, Pigweed” value [12, 21] was 100. The “Ragweed plant response rating (0 to 100 scale)” value [13] was 95, the “Plant response rating, Ragweed” value ([13]; 125 g ai/ha) was 98 and the “Plant response rating, Ragweed” value ([13]; 250 g ai/ha) was 98. For the same molecule, the “Soybean plant response rating (0 to 100 scale)” value [14] was 80, the “Plant response rating, Soybean” value ([14]; 125 g ai/ha) was 95 and the “Plant response rating, Soybean” value ([14]; 250 g ai/ha) was 98. The “Velvetleaf plant response rating (0 to 100 scale)” value [15] was 98, the “Plant response rating, Velvetleaf” value ([15]; 125 g ai/ha) was 100 and the “Plant response rating, Velvetleaf” value ([15]; 250 g ai/ha) was 100. For the same molecule, the “Plant response rating, Oat, Wild” value [16, 18] was 0, the “Oat, Wild plant response rating (0 to 100 scale)” value [16, 19] was 0 and the “Plant response rating, Oat, Wild” value [16, 20] was 0. The “Plant response rating, Oat, Wild” value [16, 21] was 10, the “Plant response rating, Nutsedge, Yellow” value [17, 18] was 65 and the “Nutsedge, Yellow plant response rating (0 to 100 scale)” value [17, 19] was 75. The “Plant response rating, Nutsedge, Yellow” value [17, 20] was 80 and the “Plant response rating, Nutsedge, Yellow” value [17, 21] was 85.
